In ChEMBL document CHEMBL5252632, “Small molecule-based fluorescent probes for the detection of α-Synuclein aggregation states” (Bioorg Med Chem Lett, 2023):

biological target: T1, Alpha-synuclein (Homo sapiens, UniProt P37840); assay: Binding affinity to C-terminal His6-tagged human Alpha-synuclein fibrils (1 to 97 residues) expressed in Escherichia coli assessed as association constant by chromatography method

Ka	Compound
380000 M⁻¹	OCCOC(=C\C=C1N(c2ccccc2)c2cc3ccccc3cc2N1c1ccccc1)/C=C/c1n(-c2ccccc2)c2cc3ccccc3cc2[n+]1-c1ccccc1

biological target: T1, Alpha-synuclein; assay: Binding affinity to human recombinant Alpha-synuclein assessed as dissociation constant by fluorometric method

Kd	Compound
8.6 µM	O=S(=O)(O)c1cccc2c(-c3ccc(Nc4ccccc4)c4c(S(=O)(=O)O)cccc34)ccc(Nc3ccccc3)c12
8.8 µM	O=S(=O)(O)c1ccc2cc(Nc3ccccc3)ccc2c1

biological target: Amyloid-beta precursor protein (Homo sapiens, UniProt P05067); assay: Binding affinity to amyloid beta (1 to 40) (unknown origin) aggregates assessed as dissociation constant
Sequence (P05067 whole entry): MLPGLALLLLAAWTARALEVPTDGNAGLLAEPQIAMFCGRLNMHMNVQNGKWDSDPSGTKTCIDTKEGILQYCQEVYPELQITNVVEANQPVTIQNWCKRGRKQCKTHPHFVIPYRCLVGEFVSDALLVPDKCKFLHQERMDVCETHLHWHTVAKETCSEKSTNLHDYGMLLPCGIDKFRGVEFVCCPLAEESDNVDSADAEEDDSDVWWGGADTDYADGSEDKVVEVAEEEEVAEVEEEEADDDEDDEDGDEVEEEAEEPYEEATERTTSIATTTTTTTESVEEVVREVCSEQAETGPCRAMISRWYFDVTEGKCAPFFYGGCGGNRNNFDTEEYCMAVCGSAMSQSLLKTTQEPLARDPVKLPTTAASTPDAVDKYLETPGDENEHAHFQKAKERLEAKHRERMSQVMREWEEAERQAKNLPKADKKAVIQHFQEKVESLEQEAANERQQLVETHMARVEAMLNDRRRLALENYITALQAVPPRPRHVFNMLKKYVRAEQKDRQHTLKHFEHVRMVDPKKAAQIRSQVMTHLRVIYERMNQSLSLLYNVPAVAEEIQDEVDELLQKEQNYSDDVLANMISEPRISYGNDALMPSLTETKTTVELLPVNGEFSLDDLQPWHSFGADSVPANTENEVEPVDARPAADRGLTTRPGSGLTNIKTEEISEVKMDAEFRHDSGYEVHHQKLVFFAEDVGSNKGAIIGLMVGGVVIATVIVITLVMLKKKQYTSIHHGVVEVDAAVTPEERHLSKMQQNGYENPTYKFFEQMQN

Compound	Kd
COc1ccc2nc(-c3ccc(N4CCCCCCC4)cc3)sc2c1	0.22 µM
COc1ccc2nc(-c3ccc(N4CCCCCC4)cc3)sc2c1	0.22 µM
COc1ccc2nc(-c3ccc(N4CCCC4)cc3)sc2c1	0.22 µM

The remaining lines, values ahead:

Kd	Compound
0.22 µM	COc1ccc2nc(-c3ccc(N4CCCCC4)cc3)sc2c1
0.22 µM	COc1ccc2nc(-c3ccc(N(C)C)cc3)sc2c1
0.22 µM	COc1ccc2nc(-c3ccc(N4CCOCC4)cc3)sc2c1
0.048 µM	CN(C)c1ccc2nc(/C=C/C=C/C=C(C#N)C#N)sc2c1

biological target: T1, Alpha-synuclein; assay: Binding affinity to Alpha-synuclein (unknown origin) assessed as dissociation constant

Compound	Kd
COc1ccc2c(c1)sc(-c1ccc(N3CCOCC3)cc1)[n+]2C	118 µM
COc1ccc2c(c1)sc(-c1ccc(N3CCCCCCC3)cc1)[n+]2C	118 µM
COc1ccc2c(c1)sc(-c1ccc(N3CCCCCC3)cc1)[n+]2C	118 µM

Next, values leading:

Kd	Compound
118 µM	COc1ccc2c(c1)sc(-c1ccc(N3CCCCC3)cc1)[n+]2C
118 µM	COc1ccc2c(c1)sc(-c1ccc(N(C)C)cc1)[n+]2C
